Test results published in patent US20230365553A1, “COMPOUNDS AND COMPOSITIONS FOR TREATING CONDITIONS ASSOCIATED WITH STING ACTIVITY” (IFM Due, Inc., priority 2020, published 2023).

target: T1, STING (Homo sapiens, UniProt Q86WV6, G230A/H232R/R293Q/R71H); assay: STING reporter assay: luciferase reporter activity in THP1-Dual KO-IFNAR2 cells stimulated with 2′3′cGAMP; format: cell-based; conditions: 15 μM 2′3′cGAMP, 24h, read-out: hSTING EC50
T1 construct: host or cells: THP1-Dual KO-IFNAR2 cells
T1 sequence (Q86WV6 whole entry R71H/G230A/H232R/R293Q): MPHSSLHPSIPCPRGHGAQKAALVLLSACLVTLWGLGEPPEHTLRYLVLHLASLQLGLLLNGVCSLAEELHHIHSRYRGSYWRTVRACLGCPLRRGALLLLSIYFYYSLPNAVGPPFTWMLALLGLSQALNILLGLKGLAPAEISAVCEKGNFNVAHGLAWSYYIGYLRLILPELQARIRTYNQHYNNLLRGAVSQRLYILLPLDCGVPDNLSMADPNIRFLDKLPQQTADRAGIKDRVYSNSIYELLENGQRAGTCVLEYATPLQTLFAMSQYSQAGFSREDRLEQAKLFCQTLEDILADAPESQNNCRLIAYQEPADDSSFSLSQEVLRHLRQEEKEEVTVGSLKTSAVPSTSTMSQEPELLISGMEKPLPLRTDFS
In short: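 THP1-Dual KO-IFNAR2 cells (2×10E6 cells/mL) were exposed to compounds at 0.0017-100 μM, then stimulated with 2′3′cGAMP (15 μM final) transfected via Lipofectamine 2000. After 24h at 37° C., secreted luciferase in supernatant was read by QUANTI-Luc luminescence; EC50 derived from concentration-response.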

EC50	SMILES
5 to 100 µM	CC(=O)Nc1c[nH]c2ccc(-c3cnn(Cc4cnc(C5CCC(F)(F)CC5)c(F)c4)c3)cc12 [Compound 250, N-(5-(1-((6-(4,4-difluorocyclohexyl)-5-fluoropyridin-3-yl)methyl)-1H-pyrazol-4-yl)-1H-indol-3-yl)acetamide]
5 to 100 µM	O=C(Nc1c[nH]c2ncc(-c3cnn(-c4ccc(C(F)(F)F)cc4)c3)cc12)C1CCC1 [Compound 251, N-(5-(1-(4-(trifluoromethyl)phenyl)-1H-pyrazol-4-yl)-1H-pyrrolo[2,3-b]pyridin-3-yl)cyclobutanecarboxamide]
1 to 5 µM	CN1C(=O)CCC1C(=O)Nc1c[nH]c2ccc(-c3cnn(-c4ccc(C(F)(F)F)cc4)c3)cc12 (stereo not shown) [Compound 252, 1-methyl-5-oxo-N-(5-(1-(4-(trifluoromethyl)phenyl)-1H-pyrazol-4-yl)-1H-indol-3-yl)pyrrolidine-2-carboxamide]
0.2 to 1 µM	O=C(Nc1c[nH]c2ccc(-c3cnn(Cc4ccc(C(F)(F)F)cn4)c3)cc12)C1CCC1 [Compound 253, N-(5-(1-((5-(trifluoromethyl)pyridin-2-yl)methyl)-1H-pyrazol-4-yl)-1H-indol-3-yl)cyclobutanecarboxamide]
5 to 100 µM	CN1CCC1C(=O)Nc1c[nH]c2ccc(-c3cnn(-c4ccc(C(F)(F)F)cc4)c3)cc12 (stereo not shown) [Compound 254, 1-methyl-N-(5-(1-(4-(trifluoromethyl)phenyl)-1H-pyrazol-4-yl)-1H-indol-3-yl)azetidine-2-carboxamide]
5 to 100 µM	O=C(Nc1c[nH]c2cnc(-c3cnn(-c4ccc(C(F)(F)F)cc4)c3)cc12)C1CCC1 [Compound 255, N-(5-(1-(4-(trifluoromethyl)phenyl)-1H-pyrazol-4-yl)-1H-pyrrolo[2,3-c]pyridin-3-yl)cyclobutanecarboxamide]
1 to 5 µM	CCC(=O)Nc1c[nH]c2ccc(-c3cnn(-c4ccc(C(F)(F)F)c(COC)c4)c3)cc12 [Compound 256, N-(5-(1-(3-(methoxymethyl)-4-(trifluoromethyl)phenyl)-1H-pyrazol-4-yl)-1H-indol-3-yl)propionamide]
0.2 to 1 µM	CC(c1cccc(C(F)(F)F)c1)n1cc(-c2ccc3[nH]cc(NC(=O)C4CCC4)c3c2)cn1 (stereo not shown) [Compound 257, N-(5-(1-(1-(3-(trifluoromethyl)phenyl)ethyl)-1H-pyrazol-4-yl)-1H-indol-3-yl)cyclobutanecarboxamide]
0.04 to 0.2 µM	O=C(Nc1c[nH]c2ccc(-c3cnn(Cc4ccc(C(F)(F)F)cc4)c3)cc12)C1CCC1 [Compound 258, N-(5-(1-(4-(trifluoromethyl)benzyl)-1H-pyrazol-4-yl)-1H-indol-3-yl)cyclobutanecarboxamide]
0.2 to 1 µM	O=C(Nc1c[nH]c2ccc(-c3cnn(-c4ccc(C5CC(F)(F)C5)cc4)c3)cc12)C1CCC1 [Compound 259, N-(5-(1-(4-(3,3-difluorocyclobutyl)phenyl)-1H-pyrazol-4-yl)-1H-indol-3-yl)cyclobutanecarboxamide]
5 to 100 µM	O=C(Nc1c[nH]c2ccc(-c3cnn(-c4ccc(C(F)(F)F)cc4)c3)cc12)c1ncc[nH]1 [Compound 260, N-(5-(1-(4-(trifluoromethyl)phenyl)-1H-pyrazol-4-yl)-1H-indol-3-yl)-1H-imidazole-2-carboxamide]
1 to 5 µM	O=C(Nc1c[nH]c2ccc(-c3cnn(-c4ccc(C(F)(F)F)cc4)c3)cc12)c1cnn[nH]1 [Compound 261, N-(5-(1-(4-(trifluoromethyl)phenyl)-1H-pyrazol-4-yl)-1H-indol-3-yl)-1H-1,2,3-triazole-5-carboxamide]
0.2 to 1 µM	O=C(Nc1c[nH]c2ccc(-c3cnn(-c4ccc(C(F)(F)F)cc4)c3)cc12)c1ccno1 [Compound 262, N-(5-(1-(4-(trifluoromethyl)phenyl)-1H-pyrazol-4-yl)-1H-indol-3-yl)isoxazole-5-carboxamide]
0.2 to 1 µM	O=C(Nc1c[nH]c2ccc(-c3cnn(-c4ccc(C(F)(F)F)cc4)c3)cc12)c1cnco1 [Compound 263, N-(5-(1-(4-(trifluoromethyl)phenyl)-1H-pyrazol-4-yl)-1H-indol-3-yl)oxazole-5-carboxamide]
1 to 5 µM	N#Cc1cc(C(=O)Nc2c[nH]c3ccc(-c4cnn(-c5ccc(C(F)(F)F)cc5)c4)cc23)n[nH]1 [Compound 264, 5-cyano-N-(5-(1-(4-(trifluoromethyl)phenyl)-1H-pyrazol-4-yl)-1H-indol-3-yl)-1H-pyrazole-3-carboxamide]
0.2 to 1 µM	O=C(Nc1c[nH]c2ccc(-c3cnn(-c4ccc(C(F)(F)F)cc4)c3)cc12)c1ccn[nH]1 [Compound 265, N-(5-(1-(4-(trifluoromethyl)phenyl)-1H-pyrazol-4-yl)-1H-indol-3-yl)-1H-pyrazole-5-carboxamide]
0.2 to 1 µM	O=C(Nc1c[nH]c2ccc(-c3cnn(-c4ccc(C(F)(F)F)cc4)c3)cc12)c1cn[nH]c1 [Compound 266, N-(5-(1-(4-(trifluoromethyl)phenyl)-1H-pyrazol-4-yl)-1H-indol-3-yl)-1H-pyrazole-4-carboxamide]

EC50	SMILES
0.2 to 1 µM	O=C(Nc1c[nH]c2ccc(-c3cnn(-c4ccc(C(F)(F)F)cc4)c3)cc12)c1cocn1 [Compound 267, N-(5-(1-(4-(trifluoromethyl)phenyl)-1H-pyrazol-4-yl)-1H-indol-3-yl)oxazole-4-carboxamide]
0.2 to 1 µM	O=C(Nc1c[nH]c2ccc(-c3cnn(-c4ccc(C(F)(F)F)cc4)c3)cc12)c1cncs1 [Compound 268, N-(5-(1-(4-(trifluoromethyl)phenyl)-1H-pyrazol-4-yl)-1H-indol-3-yl)thiazole-5-carboxamide]
1 to 5 µM	Cn1ccnc1C(=O)Nc1c[nH]c2ccc(-c3cnn(-c4ccc(C(F)(F)F)cc4)c3)cc12 [Compound 269, 1-methyl-N-(5-(1-(4-(trifluoromethyl)phenyl)-1H-pyrazol-4-yl)-1H-indol-3-yl)-1H-imidazole-2-carboxamide]
0.2 to 1 µM	Cc1nc(C(=O)Nc2c[nH]c3ccc(-c4cnn(-c5ccc(C(F)(F)F)cc5)c4)cc23)co1 [Compound 270, 2-methyl-N-(5-(1-(4-(trifluoromethyl)phenyl)-1H-pyrazol-4-yl)-1H-indol-3-yl)oxazole-4-carboxamide]
0.2 to 1 µM	Cc1cc(C(=O)Nc2c[nH]c3ccc(-c4cnn(-c5ccc(C(F)(F)F)cc5)c4)cc23)on1 [Compound 271, 3-methyl-N-(5-(1-(4-(trifluoromethyl)phenyl)-1H-pyrazol-4-yl)-1H-indol-3-yl)isoxazole-5-carboxamide]
1 to 5 µM	O=C(Nc1c[nH]c2ccc(-c3cnn(-c4ccc(C(F)(F)F)cc4)c3)cc12)c1ncco1 [Compound 272, N-(5-(1-(4-(trifluoromethyl)phenyl)-1H-pyrazol-4-yl)-1H-indol-3-yl)oxazole-2-carboxamide]
1 to 5 µM	O=C(Nc1c[nH]c2ccc(-c3cnn(-c4ccc(C(F)(F)F)cc4)c3)cc12)c1nccs1 [Compound 273, N-(5-(1-(4-(trifluoromethyl)phenyl)-1H-pyrazol-4-yl)-1H-indol-3-yl)thiazole-2-carboxamide]
0.2 to 1 µM	Cc1cc(C(=O)Nc2c[nH]c3ccc(-c4cnn(-c5ccc(C(F)(F)F)cc5)c4)cc23)no1 [Compound 274, 5-methyl-N-(5-(1-(4-(trifluoromethyl)phenyl)-1H-pyrazol-4-yl)-1H-indol-3-yl)isoxazole-3-carboxamide]
1 to 5 µM	O=C(Nc1c[nH]c2ccc(-c3cnn(-c4ccc(C(F)(F)F)cc4)c3)cc12)c1cscn1 [Compound 275, N-(5-(1-(4-(trifluoromethyl)phenyl)-1H-pyrazol-4-yl)-1H-indol-3-yl)thiazole-4-carboxamide]
0.2 to 1 µM	Cn1ccc(C(=O)Nc2c[nH]c3ccc(-c4cnn(-c5ccc(C(F)(F)F)cc5)c4)cc23)n1 [Compound 276, 1-methyl-N-(5-(1-(4-(trifluoromethyl)phenyl)-1H-pyrazol-4-yl)-1H-indol-3-yl)-1H-pyrazole-3-carboxamide]
5 to 100 µM	O=C(Nc1c[nH]c2ccc(-c3cnn(-c4ccc(C(F)(F)F)cc4)c3)cc12)c1cnoc1 [Compound 277, N-(5-(1-(4-(trifluoromethyl)phenyl)-1H-pyrazol-4-yl)-1H-indol-3-yl)isoxazole-4-carboxamide]
0.2 to 1 µM	Cn1cc(C(=O)Nc2c[nH]c3ccc(-c4cnn(-c5ccc(C(F)(F)F)cc5)c4)cc23)cn1 [Compound 278, 1-methyl-N-(5-(1-(4-(trifluoromethyl)phenyl)-1H-pyrazol-4-yl)-1H-indol-3-yl)-1H-pyrazole-4-carboxamide]
0.2 to 1 µM	Cn1cc(C(=O)Nc2c[nH]c3ccc(-c4cnn(-c5ccc(C(F)(F)F)cc5)c4)cc23)nn1 [Compound 279, 1-methyl-N-(5-(1-(4-(trifluoromethyl)phenyl)-1H-pyrazol-4-yl)-1H-indol-3-yl)-1H-1,2,3-triazole-4-carboxamide]
0.2 to 1 µM	O=C(Nc1c[nH]c2ccc(-c3cnn(-c4ccc(C(F)(F)F)cc4)c3)cc12)c1ccon1 [Compound 280, N-(5-(1-(4-(trifluoromethyl)phenyl)-1H-pyrazol-4-yl)-1H-indol-3-yl)isoxazole-3-carboxamide]
1 to 5 µM	Cn1cnc(C(=O)Nc2c[nH]c3ccc(-c4cnn(-c5ccc(C(F)(F)F)cc5)c4)cc23)c1 [Compound 281, 1-methyl-N-(5-(1-(4-(trifluoromethyl)phenyl)-1H-pyrazol-4-yl)-1H-indol-3-yl)-1H-imidazole-4-carboxamide]
1 to 5 µM	O=C(Nc1c[nH]c2ccc(-c3cnn(-c4ccc(C(F)(F)F)cc4)c3)cc12)c1ccc(=O)[nH]n1 [Compound 282, 6-oxo-N-(5-(1-(4-(trifluoromethyl)phenyl)-1H-pyrazol-4-yl)-1H-indol-3-yl)-1,6-dihydropyridazine-3-carboxamide]
0.2 to 1 µM	CC(C)n1cc(C(=O)Nc2c[nH]c3ccc(-c4cnn(-c5ccc(C(F)(F)F)cc5)c4)cc23)nn1 [Compound 283, 1-isopropyl-N-(5-(1-(4-(trifluoromethyl)phenyl)-1H-pyrazol-4-yl)-1H-indol-3-yl)-1H-1,2,3-triazole-4-carboxamide]
